Laboratory results reported in patent publication US20030165864A1, “Genes regulated by DNA methylation in tumor cells” (priority 2001, published 2003).

Columns and labels:
polyp formation = settings: in combination with a genetic reduction in DNA methyltransferase I activity; cited from earlier work
HT-29 cells [1] = settings: cultured HT-29 cells, colorectal cancer cell line; cited from earlier work
HT-29 cells [2] = settings: inhibition parallels induction of IFN responsive genes; cited from earlier work
[3] = tested on: HT29 colorectal carcinoma cells; test: microarray differential expression in 5-aza-2-deoxycytidine-treated versus untreated HT29 cells; type: cell-based, human; settings: for D.E. (log2): 500 nM, treated vs untreated HT29 cells
Source text: Incyte clones represent template sequences derived from the LIFESEQ GOLD assembled human sequence database (Incyte Genomics). In cases where more than one clone was available for a particular template, the 5′-most clone in the template was used on the microarray. The HUMAN GENOME GEM series 1-4 microarrays (Incyte Genomics) contain 37,715 array elements which represent 12,989 annotated clusters and 24,726 unannotated clusters.
To construct microarrays, cDNAs were amplified from bacterial cells using primers complementary to vector sequences flanking the cDNA insert. Thirty cycles of PCR increased the initial quantity of cDNAs from 1-2 ng to a final quantity greater than 5 μg. Amplified cDNAs were then purified using SEPHACRYL-400 columns (APB). Purified cDNAs were immobilized on polymer-coated glass slides. Glass microscope slides (Corning, Corning N.Y.) were cleaned by ultrasound in 0.1% SDS and acetone, with extensive distilled water washes between and after treatments. Glass slides were etched in 4% hydrofluoric acid (VWR Scientific Products, West Chester Pa.), washed thoroughly in distilled water, and coated with 0.05% aminopropyl silane (Sigma Aldrich) in 95% ethanol. Coated slides were cured in a 110° C. oven. cDNAs were applied to the coated glass substrate using a procedure described in U.S. Pat. No. 5,807,522. One microliter of the cDNA at an average concentration of 100 ng/μl was loaded into the open capillary printing element by a high-speed robotic apparatus which then deposited about 5 nl of cDNA per slide.
Microarrays were UV-crosslinked using a STRATALINKER UV-crosslinker (Stratagene), and then washed at room temperature once in 0.2% SDS and three times in distilled water. Non-specific binding sites were blocked by incubation of microarrays in 0.2% casein in phosphate buffered saline (Tropix, Bedford Mass.) for 30 minutes at 60° C. followed by washes in 0.2% SDS and distilled water as before.
HT29 cells were derived from a Grade II adenocarcinoma of the colon obtained from a person. HT29 adenocarcinoma cells (American Type Culture Collection, Manassas Va.) were cultured in McCoy's medium supplemented with 10% fetal bovine serum (Invitrogen) at 37° C. and 5% CO2. Treated cells were exposed to 500 nM 5-aza-2-deoxycytidine (Sigma-Aldrich) 24 hr after passage in complete culture medium. Control cultures were treated in parallel with phosphate buffered saline vehicle. After twenty-four hours, culture medium was replaced with drug-free medium. Control and 5-aza-2-deoxycytidine-treated cells were subcultured at equal densities at 1 and 5 days after the initial treatment, and proliferation was measured at the subsequent time point using a Coulter counter (Beckman Coulter, Fullerton Calif.). Cells were harvested 9 days after the initial treatment.
Cells were harvested and lysed in 1 ml of TRIZOL reagent (5×10^6 cells/ml; Invitrogen). The lysates were vortexed thoroughly and incubated at room temperature for 2-3 minutes and extracted with 0.5 ml chloroform. The extract was mixed, incubated at room temperature for 5 minutes, and centrifuged at 16,000×g for 15 minutes at 4° C. The aqueous layer was collected and an equal volume of isopropanol was added. Samples were mixed, incubated at room temperature for 10 minutes, and centrifuged at 16,000×g for 20 minutes at 4° C. The supernatant was removed and the RNA pellet was washed with 1 ml of 70% ethanol, centrifuged at 16,000×g at 4° C., and resuspended in RNAse-free water. The concentration of the RNA was determined by measuring the optical density at 260 nm.
Poly(A) RNA was prepared using an OLIGOTEX mRNA kit (Qiagen) with the following modifications: OLIGOTEX beads were washed in tubes instead of on spin columns, resuspended in elution buffer, and then loaded onto spin columns to recover mRNA. To obtain maximum yield, the mRNA was eluted twice. […]

[4] = treated HT29 cells versus untreated cells

Nc1ncn([C@H]2C[C@H](O)[C@@H](CO)O2)c(=O)n1 [5-aza-2-deoxycytidine]
polyp formation (polyp formation): reduced polyp formation | gene expression after treatment (HT-29 cells [1]): specific expression of several genes related to interferon (IFN) signaling | growth of HT-29 cells in culture (HT-29 cells [2]): inhibits growth | D.E. (log2) ([3]; SEQ ID NO 1, GAGE-8 [Homo sapiens], harvested 9 days after treatment): 3.45 log2 | D.E. (log2) ([3]; SEQ ID NO 2, GAGE-7B [Homo sapiens]): 2.51 log2 | D.E. (log2) ([3]; SEQ ID NO 3, p27 [Homo sapiens]): 2.08 log2 | D.E. (log2) ([3]; SEQ ID NO 4, MAGE-6 antigen [Homo sapiens]): 1.74 log2 | D.E. (log2) ([3]; SEQ ID NO 5, interferon-inducible protein [Homo sapiens]): 1.62 log2 | D.E. (log2) ([3]; SEQ ID NO 6, MAGE-9 antigen [Homo sapiens]): 1.57 log2 | D.E. (log2) ([3]; SEQ ID NO 7, interferon-inducible peptide precursor [Homo sapiens]): 1.56 log2 | D.E. (log2) ([3]; SEQ ID NO 8, transcription factor ISGF-3 [Homo sapiens]): 1.49 log2 | D.E. (log2) ([3]; SEQ ID NO 9, HLA Class I region, chromosome 6p21.3, section 6/20 [Homo sapiens]): 1.40 log2 | D.E. (log2) ([3]; SEQ ID NO 10, hypothetical protein [Homo sapiens]): 1.33 log2 | D.E. (log2) ([3]; SEQ ID NO 11, GAGE-8 protein [Homo sapiens]): 2.67 log2 | D.E. (log2) ([3]; SEQ ID NO 12, putative tumor antigen [Homo sapiens]): 2.57 log2 | D.E. (log2) ([3]; SEQ ID NO 13, semaphorin B [Mus musculus]): 1.92 log2 | D.E. (log2) ([3]; SEQ ID NO 14, Incyte Unique, Template 213413.1): 2.10 log2 | D.E. (log2) ([3]; SEQ ID NO 15, Incyte Unique, Template 032481.1): 1.76 log2 | D.E. (log2) ([3]; SEQ ID NO 16, HLA Class I region, chromosome 6p21.3 [Homo sapiens]): 1.67 log2 | D.E. (log2) ([3]; SEQ ID NO 17, proline rich synapse associated protein 1 [Rattus norvegicus]): 1.66 log2 | D.E. (log2) ([3]; SEQ ID NO 18, hepatitis C-associated microtubular aggregate protein p44 [Homo sapiens]): 1.53 log2 | D.E. (log2) ([3]; SEQ ID NO 19, S100P calcium-binding protein [Homo sapiens], negative = downregulation): −1.34 log2 | D.E. (log2) ([3]; SEQ ID NO 20, G0S2 protein [Homo sapiens], negative = downregulation): −1.41 log2 | D.E. (log2) ([3]; SEQ ID NO 21, progesterone-induced protein [Oryctolagus cuniculus], negative = downregulation): −1.42 log2 | D.E. (log2) ([3]; SEQ ID NO 22, phosphoenolpyruvate carboxykinase [Homo sapiens], negative = downregulation): −1.72 log2 | D.E. (log2) ([3]; SEQ ID NO 23, unnamed protein product [Homo sapiens], negative = downregulation): −1.74 log2 | D.E. (log2) ([3]; SEQ ID NO 24, cystine/glutamate transporter [Homo sapiens], negative = downregulation): −1.81 log2 | D.E. (log2) ([3]; SEQ ID NO 25, Incyte Unique, Template 200578.1, negative = downregulation): −1.63 log2 | differential expression values of each cDNA (SEQ ID NOs: 1-25) ([3]; treated HT29 cells relative to untreated HT29 cells, up- or downregulation): greater than 2.5 fold | upregulation of SEQ ID NO: 1 [3, 4]: > 5 fold | upregulation of SEQ ID NO: 2 [3, 4]: > 5 fold | upregulation of SEQ ID NO: 4 [3, 4]: > 3 fold | upregulation of SEQ ID NO: 6 [3, 4]: > 3 fold | upregulation of SEQ ID NO: 11 [3, 4]: > 5 fold | upregulation of SEQ ID NO: 12 [3, 4]: > 5 fold
